Measurements taken from ChEMBL document CHEMBL2074503, “Role of organic anion-transporting polypeptides, OATP-A, OATP-C and OATP-8, in the human placenta-maternal liver tandem excretory pathway for foetal bilirubin” (Biochem J, 2003).
Each block holds one molecule with its values, some of them ahead of it.

Experiments:
[1] = molecular target: T1, Solute carrier organic anion transporter family member 1B3 (OATP1B3) (Homo sapiens, UniProt Q9NPD5); test: (§1) TP_TRANSPORTER: uptake in Xenopus laevis oocytes; assay type: functional, cell-based, Oocyte; settings: Xenopus laevis oocytes expressing OATP1B3 (SLCO1B3)
T1 sequence (Q9NPD5 whole entry): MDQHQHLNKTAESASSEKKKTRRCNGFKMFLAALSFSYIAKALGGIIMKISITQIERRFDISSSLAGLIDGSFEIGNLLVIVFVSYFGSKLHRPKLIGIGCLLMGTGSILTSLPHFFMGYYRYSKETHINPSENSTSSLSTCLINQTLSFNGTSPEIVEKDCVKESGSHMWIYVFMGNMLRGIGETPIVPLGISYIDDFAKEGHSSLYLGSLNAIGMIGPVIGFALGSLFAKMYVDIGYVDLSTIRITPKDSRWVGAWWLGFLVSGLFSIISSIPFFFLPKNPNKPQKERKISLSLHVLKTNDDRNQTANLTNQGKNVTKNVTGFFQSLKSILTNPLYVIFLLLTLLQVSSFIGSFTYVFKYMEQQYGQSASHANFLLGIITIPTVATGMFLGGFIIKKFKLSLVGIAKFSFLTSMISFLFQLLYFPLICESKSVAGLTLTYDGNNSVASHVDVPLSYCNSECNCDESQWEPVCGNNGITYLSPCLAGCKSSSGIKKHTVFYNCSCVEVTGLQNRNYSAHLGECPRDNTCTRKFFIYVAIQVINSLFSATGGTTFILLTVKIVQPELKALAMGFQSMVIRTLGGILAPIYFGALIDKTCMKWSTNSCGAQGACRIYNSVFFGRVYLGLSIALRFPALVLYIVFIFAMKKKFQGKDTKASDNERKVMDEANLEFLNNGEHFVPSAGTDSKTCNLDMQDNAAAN

[2] = molecular target: T2, Solute carrier organic anion transporter family member 1A2 (Homo sapiens, UniProt P46721); test: (§2) TP_TRANSPORTER: inhibition of E217betaG uptake (E217betaG: 10 uM) by Bilirubin at a concentration of 100 u M in Xenopus laevis oocytes; assay type: functional, cell-based; settings: oocyte, 100 µM
T2 sequence (P46721 whole entry): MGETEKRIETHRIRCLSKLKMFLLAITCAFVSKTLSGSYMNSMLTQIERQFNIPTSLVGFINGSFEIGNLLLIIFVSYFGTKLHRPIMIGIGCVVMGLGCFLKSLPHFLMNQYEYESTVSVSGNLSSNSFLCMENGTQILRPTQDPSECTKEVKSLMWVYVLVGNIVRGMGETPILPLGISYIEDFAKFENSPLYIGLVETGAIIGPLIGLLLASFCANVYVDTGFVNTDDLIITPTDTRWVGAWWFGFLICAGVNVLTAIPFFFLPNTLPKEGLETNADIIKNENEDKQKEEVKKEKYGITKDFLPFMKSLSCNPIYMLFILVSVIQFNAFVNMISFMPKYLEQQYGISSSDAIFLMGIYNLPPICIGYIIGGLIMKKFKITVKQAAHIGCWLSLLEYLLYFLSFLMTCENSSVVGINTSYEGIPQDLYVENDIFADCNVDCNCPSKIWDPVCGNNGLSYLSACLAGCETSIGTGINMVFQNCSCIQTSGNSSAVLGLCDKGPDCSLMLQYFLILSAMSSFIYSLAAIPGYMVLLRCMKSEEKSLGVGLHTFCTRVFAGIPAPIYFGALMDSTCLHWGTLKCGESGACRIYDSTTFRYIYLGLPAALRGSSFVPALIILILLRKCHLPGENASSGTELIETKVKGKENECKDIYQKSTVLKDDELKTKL

[3] = molecular target: T3, Solute carrier organic anion transporter family member 1B1 (Homo sapiens, UniProt Q9Y6L6); test: as §2; assay type: functional, cell-based; settings: oocyte, 100 µM
T3 sequence (Q9Y6L6 whole entry): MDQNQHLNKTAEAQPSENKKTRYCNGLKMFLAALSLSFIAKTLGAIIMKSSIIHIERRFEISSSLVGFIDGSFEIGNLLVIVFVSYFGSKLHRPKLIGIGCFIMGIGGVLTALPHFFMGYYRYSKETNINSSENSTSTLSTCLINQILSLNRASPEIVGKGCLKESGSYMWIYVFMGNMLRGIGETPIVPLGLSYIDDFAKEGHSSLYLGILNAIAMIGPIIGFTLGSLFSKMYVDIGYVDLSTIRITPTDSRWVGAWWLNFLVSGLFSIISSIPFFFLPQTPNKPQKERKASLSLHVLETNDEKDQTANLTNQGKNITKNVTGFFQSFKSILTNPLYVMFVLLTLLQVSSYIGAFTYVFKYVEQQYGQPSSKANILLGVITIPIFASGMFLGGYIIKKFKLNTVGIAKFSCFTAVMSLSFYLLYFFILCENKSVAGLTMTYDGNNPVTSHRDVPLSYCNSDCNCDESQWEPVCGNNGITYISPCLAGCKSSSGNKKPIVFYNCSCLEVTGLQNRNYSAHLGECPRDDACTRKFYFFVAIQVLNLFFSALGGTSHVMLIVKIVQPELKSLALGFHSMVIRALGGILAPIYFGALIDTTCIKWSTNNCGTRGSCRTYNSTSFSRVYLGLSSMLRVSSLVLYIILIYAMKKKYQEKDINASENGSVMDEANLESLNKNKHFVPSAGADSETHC

[4] = molecular target: T4, Solute carrier organic anion transporter family member 1B3 (Homo sapiens, UniProt Q9NPD5); test: as §2; assay type: functional, cell-based; settings: oocyte, 100 µM
T4 sequence (Q9NPD5 whole entry): T1 sequence (Q9NPD5 whole entry)

[5] = molecular target: T2, Solute carrier organic anion transporter family member 1A2; test: (§3) TP_TRANSPORTER: inhibition of UCB uptake (UCB: 10 uM) by Estradiol-17beta-D-glucuronide at a concentration of 100 u M in Xenopus laevis oocytes; assay type: functional, cell-based; settings: oocyte, 100 µM
[6] = molecular target: T3, Solute carrier organic anion transporter family member 1B1; test: as §3; assay type: functional, cell-based; settings: oocyte, 100 µM
[7] = molecular target: T4, Solute carrier organic anion transporter family member 1B3; test: as §3; assay type: functional, cell-based; settings: oocyte, 100 µM
[8] = substrate: C=CC1=C(C)/C(=C/c2[nH]c(Cc3[nH]c(/C=C4\NC(=O)C(C)=C4C=C)c(C)c3CCC(=O)O)c(CCC(=O)O)c2C)NC1=O; test: as §1; assay type: functional, cell-based, Oocyte

Km [1]: 0.0391 µM
Activity [2]: inhibitor [+]
Activity [3]: inhibitor [+]
Activity [4]: inhibitor [+]
Molecule: C=CC1=C(C)/C(=C/c2[nH]c(Cc3[nH]c(/C=C4\NC(=O)C(C)=C4C=C)c(C)c3CCC(=O)O)c(CCC(=O)O)c2C)NC1=O [BILIRUBIN]

Molecule: C[C@]12CC[C@@H]3c4ccc(O)cc4CC[C@H]3[C@@H]1CC[C@@H]2O[C@@H]1O[C@H](C(=O)O)[C@@H](O)[C@H](O)[C@H]1O [ESTRADIOL 17B GLUCURONIDE]
Activity [5]: inhibitor [+]
Activity [6]: inhibitor [+]
Activity [7]: inhibitor [+]

B1: Solute carrier organic anion transporter family member 1B1 (Homo sapiens) (protein)
chain: T3 sequence (Q9Y6L6 whole entry)
Km [8]: 0.0076 µM
